One assay concerns the target TEAD4 (Homo sapiens, UniProt Q15561). The assay is described as follows: Inhibition of TEAD4 auto-palmitoylation in vitro.
The target of the next assay is TEAD2 (Homo sapiens, UniProt Q15562). The assay is described as follows: Inhibition of TEAD2 auto-palmitoylation in vitro.

The structures appear in SMILES notation.

Sequence of TEAD4 (Q15561 whole entry, species assumed): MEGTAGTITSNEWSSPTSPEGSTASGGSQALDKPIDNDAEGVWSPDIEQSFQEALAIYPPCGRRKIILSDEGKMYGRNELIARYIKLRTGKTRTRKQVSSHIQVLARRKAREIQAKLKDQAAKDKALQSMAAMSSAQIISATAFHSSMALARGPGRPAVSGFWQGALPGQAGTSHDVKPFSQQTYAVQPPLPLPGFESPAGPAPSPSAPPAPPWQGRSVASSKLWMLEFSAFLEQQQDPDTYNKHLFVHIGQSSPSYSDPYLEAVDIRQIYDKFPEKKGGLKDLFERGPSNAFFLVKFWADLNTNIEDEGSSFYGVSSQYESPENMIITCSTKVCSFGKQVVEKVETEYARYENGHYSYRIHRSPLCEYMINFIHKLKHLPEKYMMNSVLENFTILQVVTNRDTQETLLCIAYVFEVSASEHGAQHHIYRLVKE
Sequence of TEAD2 (Q15562 whole entry): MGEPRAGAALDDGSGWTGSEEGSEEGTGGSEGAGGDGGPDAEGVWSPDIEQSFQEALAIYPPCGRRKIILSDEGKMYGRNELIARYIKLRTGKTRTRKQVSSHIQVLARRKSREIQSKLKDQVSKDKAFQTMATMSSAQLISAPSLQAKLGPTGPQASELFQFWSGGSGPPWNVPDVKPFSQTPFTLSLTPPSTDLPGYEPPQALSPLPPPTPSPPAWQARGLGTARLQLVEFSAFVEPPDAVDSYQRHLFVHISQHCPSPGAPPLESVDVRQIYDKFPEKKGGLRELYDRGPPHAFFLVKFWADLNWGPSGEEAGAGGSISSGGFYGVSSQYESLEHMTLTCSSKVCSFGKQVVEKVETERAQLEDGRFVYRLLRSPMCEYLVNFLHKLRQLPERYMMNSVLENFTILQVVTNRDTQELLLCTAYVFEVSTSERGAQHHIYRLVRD

For orientation: IC50 means the concentration needed to halve the response being measured. Turning to `O=C(Nc1ccccc1)N1CCN(C(=O)c2cccc(OCCC3CCCCC3)c2)CC1` [TM2, 4-(3-(2-cyclohexylethoxy)benzoyl)-N-phenylpiperazine-1-carboxamide], the IC50 was determined as 38 nM at TEAD4 and 156 nM at TEAD2.
